Several values for one entry are separate records, joined by “and”; a condition that tells them apart may be missing. Equal entries are not always repeated. Where two headings read alike, the source gives them in different places.
Tests used:
Test in all cases: Eurofins enzymatic radiometric kinase assay
Type in all cases: biochemical
TAOK2 = target: T1, TAOK2 (Homo sapiens, UniProt Q9UL54); settings: ATP at Km, duplicate
T1 construct: purchased Eurofins
T1 sequence (Q9UL54 1-1235): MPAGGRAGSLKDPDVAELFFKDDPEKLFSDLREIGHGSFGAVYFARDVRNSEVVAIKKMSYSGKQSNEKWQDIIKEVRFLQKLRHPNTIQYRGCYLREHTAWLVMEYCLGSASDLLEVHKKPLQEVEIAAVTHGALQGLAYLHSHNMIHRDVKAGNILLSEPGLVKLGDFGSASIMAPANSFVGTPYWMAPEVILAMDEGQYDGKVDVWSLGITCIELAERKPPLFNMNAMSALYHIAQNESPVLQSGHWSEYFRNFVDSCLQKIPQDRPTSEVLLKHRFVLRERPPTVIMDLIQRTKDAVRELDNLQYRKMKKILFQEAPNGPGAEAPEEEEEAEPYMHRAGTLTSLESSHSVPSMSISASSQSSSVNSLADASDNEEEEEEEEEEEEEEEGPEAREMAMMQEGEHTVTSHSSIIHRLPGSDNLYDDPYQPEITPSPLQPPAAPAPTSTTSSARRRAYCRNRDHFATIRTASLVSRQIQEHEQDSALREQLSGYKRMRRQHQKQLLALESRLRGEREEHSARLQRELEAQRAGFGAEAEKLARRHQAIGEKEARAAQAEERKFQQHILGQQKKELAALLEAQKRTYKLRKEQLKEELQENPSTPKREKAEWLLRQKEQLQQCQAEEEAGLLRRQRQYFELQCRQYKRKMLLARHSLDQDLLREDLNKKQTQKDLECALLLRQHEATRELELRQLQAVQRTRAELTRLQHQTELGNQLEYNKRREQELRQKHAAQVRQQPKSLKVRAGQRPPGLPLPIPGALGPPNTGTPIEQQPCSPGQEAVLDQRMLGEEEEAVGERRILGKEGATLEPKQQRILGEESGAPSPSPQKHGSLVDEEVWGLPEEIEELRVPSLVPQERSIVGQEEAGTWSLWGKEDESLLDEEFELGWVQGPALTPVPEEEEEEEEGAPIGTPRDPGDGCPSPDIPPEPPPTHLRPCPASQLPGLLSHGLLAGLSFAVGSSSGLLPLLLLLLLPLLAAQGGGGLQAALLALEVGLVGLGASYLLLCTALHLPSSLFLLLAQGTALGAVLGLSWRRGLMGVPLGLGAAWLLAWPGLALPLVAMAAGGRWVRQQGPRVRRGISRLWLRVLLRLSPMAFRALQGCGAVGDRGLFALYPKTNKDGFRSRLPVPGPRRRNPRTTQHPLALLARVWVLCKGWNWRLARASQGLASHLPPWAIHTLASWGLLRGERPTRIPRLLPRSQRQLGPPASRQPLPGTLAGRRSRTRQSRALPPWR
Procedure: (§1) The column labeled “# < 10 PoC in enzyme panel” in Table 1 reports the number of kinases in this 17-member panel inhibited > 90% by each analog.
(§2) Details about the substrate used, protein constructs, controls, and assay protocol for these kinase assays are available at the Eurofins website: https://www.eurofinsdiscoveryservices.com. Reaction Biology Corp. (RBC) radiometric HotSpot kinase assays were carried out at the Km value for ATP in dose–response (10-pt curve) format for MYLK4, RIPK5, and YSK4 in Table S2. Details about the substrate used, protein constructs, controls, and assay protocol for these kinase assays are available at the RBC website: https://www.reactionbiology.com/list-kinase-targets-us-facility. SignalChem developed an ADP-Glo assay to test for enzymatic inhibition of PIKfyve in dose–response (10-pt curve) format in duplicate.

HIPK1 = target: T2, HIPK1 (Homo sapiens, UniProt Q86Z02); settings: ATP at Km, duplicate
T2 construct: purchased Eurofins (radiometric) / Eurofins DiscoverX scanMAX / Reaction Biology / SignalChem
Procedure: as §1, §2

PAK5 = target: T3, PAK5 (Homo sapiens, UniProt Q9P286); settings: ATP at Km, duplicate
T3 construct: purchased Eurofins (radiometric) / Eurofins DiscoverX scanMAX / Reaction Biology / SignalChem
Procedure: as §1, §2

TAOK1 = target: T4, TAOK1 (Homo sapiens, UniProt Q7L7X3); settings: ATP at Km, duplicate
T4 construct: purchased Eurofins
T4 sequence (Q7L7X3 1-1001): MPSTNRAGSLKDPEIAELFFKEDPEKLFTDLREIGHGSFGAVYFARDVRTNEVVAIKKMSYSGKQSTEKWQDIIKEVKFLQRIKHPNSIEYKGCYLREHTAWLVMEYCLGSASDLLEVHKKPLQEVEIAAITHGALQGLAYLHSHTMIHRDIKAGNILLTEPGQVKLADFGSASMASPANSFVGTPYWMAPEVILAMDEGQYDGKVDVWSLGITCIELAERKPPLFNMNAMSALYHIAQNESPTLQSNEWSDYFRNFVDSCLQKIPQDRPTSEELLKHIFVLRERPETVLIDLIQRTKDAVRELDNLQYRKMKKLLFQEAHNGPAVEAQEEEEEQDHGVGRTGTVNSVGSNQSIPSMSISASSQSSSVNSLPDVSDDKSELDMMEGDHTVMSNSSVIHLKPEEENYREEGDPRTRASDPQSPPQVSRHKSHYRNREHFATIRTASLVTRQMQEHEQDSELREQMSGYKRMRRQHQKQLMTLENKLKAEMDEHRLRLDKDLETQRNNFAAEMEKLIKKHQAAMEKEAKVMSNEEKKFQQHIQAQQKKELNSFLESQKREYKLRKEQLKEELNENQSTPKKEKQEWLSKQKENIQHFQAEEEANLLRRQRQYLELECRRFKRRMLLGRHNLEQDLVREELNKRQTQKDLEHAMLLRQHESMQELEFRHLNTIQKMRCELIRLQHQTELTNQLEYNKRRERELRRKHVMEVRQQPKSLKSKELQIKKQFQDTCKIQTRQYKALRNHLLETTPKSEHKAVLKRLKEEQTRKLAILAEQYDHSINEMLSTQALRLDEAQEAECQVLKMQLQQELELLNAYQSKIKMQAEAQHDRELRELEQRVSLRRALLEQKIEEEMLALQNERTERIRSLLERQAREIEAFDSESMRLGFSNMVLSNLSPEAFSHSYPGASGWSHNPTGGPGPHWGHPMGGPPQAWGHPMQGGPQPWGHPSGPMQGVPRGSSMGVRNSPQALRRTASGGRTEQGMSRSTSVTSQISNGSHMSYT
Procedure: as §1, §2

TTBK1 = target: T5, TTBK1 (Homo sapiens, UniProt Q5TCY1); settings: for TTBK1 PoC: 1 μM, duplicate, lower = greater inhibition
T5 construct: purchased Eurofins
Procedure: as §1, §2

T2 sequence (Q86Z02 whole entry): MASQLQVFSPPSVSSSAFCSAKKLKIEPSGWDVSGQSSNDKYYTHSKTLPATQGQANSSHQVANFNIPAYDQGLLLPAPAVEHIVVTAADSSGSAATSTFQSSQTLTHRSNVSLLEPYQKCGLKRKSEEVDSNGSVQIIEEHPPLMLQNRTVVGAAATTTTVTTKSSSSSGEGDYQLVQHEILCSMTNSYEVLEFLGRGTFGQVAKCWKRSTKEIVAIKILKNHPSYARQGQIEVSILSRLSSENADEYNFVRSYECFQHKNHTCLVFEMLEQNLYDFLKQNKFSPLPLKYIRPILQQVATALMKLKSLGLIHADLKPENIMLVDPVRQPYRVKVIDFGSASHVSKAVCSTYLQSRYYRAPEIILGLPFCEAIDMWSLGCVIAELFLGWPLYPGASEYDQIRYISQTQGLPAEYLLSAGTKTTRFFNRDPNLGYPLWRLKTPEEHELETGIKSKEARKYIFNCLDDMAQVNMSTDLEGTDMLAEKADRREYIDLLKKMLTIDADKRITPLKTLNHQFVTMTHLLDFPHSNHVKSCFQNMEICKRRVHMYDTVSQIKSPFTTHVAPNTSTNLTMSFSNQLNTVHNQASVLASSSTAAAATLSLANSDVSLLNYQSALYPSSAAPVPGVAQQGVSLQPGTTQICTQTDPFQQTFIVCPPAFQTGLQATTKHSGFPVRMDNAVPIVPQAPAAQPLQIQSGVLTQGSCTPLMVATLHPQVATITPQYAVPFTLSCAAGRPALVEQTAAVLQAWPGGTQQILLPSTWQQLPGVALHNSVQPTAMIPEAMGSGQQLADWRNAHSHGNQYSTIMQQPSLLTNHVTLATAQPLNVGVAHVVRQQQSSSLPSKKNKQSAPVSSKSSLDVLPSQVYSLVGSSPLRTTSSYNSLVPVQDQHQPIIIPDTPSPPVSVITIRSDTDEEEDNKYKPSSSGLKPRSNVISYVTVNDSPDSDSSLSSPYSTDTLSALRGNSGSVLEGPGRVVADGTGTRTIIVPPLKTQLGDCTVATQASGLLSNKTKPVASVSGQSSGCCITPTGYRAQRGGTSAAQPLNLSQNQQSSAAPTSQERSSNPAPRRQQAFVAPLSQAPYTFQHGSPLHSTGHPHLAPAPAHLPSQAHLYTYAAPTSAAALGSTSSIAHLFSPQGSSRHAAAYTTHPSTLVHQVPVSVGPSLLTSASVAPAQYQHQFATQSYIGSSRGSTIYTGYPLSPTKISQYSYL
T3 sequence (Q9P286 whole entry): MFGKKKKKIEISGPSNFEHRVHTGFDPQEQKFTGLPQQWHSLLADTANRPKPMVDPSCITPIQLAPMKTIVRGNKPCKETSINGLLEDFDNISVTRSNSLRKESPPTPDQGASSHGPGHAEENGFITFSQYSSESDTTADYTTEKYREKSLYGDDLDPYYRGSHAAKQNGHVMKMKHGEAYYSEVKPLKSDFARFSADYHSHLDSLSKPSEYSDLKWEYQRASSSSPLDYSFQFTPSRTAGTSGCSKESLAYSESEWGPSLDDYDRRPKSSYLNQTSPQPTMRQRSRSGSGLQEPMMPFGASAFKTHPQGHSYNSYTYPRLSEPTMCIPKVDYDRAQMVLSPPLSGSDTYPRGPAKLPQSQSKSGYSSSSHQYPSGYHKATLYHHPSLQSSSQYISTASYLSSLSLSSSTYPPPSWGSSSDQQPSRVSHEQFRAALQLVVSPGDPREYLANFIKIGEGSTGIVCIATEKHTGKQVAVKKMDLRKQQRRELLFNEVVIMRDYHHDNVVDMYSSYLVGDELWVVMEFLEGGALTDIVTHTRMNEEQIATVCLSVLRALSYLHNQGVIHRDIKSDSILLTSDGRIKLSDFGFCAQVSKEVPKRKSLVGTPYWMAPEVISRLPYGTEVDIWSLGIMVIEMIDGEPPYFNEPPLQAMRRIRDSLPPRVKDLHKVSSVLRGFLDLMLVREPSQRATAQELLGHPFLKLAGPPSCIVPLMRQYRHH
T5 sequence (Q5TCY1 whole entry): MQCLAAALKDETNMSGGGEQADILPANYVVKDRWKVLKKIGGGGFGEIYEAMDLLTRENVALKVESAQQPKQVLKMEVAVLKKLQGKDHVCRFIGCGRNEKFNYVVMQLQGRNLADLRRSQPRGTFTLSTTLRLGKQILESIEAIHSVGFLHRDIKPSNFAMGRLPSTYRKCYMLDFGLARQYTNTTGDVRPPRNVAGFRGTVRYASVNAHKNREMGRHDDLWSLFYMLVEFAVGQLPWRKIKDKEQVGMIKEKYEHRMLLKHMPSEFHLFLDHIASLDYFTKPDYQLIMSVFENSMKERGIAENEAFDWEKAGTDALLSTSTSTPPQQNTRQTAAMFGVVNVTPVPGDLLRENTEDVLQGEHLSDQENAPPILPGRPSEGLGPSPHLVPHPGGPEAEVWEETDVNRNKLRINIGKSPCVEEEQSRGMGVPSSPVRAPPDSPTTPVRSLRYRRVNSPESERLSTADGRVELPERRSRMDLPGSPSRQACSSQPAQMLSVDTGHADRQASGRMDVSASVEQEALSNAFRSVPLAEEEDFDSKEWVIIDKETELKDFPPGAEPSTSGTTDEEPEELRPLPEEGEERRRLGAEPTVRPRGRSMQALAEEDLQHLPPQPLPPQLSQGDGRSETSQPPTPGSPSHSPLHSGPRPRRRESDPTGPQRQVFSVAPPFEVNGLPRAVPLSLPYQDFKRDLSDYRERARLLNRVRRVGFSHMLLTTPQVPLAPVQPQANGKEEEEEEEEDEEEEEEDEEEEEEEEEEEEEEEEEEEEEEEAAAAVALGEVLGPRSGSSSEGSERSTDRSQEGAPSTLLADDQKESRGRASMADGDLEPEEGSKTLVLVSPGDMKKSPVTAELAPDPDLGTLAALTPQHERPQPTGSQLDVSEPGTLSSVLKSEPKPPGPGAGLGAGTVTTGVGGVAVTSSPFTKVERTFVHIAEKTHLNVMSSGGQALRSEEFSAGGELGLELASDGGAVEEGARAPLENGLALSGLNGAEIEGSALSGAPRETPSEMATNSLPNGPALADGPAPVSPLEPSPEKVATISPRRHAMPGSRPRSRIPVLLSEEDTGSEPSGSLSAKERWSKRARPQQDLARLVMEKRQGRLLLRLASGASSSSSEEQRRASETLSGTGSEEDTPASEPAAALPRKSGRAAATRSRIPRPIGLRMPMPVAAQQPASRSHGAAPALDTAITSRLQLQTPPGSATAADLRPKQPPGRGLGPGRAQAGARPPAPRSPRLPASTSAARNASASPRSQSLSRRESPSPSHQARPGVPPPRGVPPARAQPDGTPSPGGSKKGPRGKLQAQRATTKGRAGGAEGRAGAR

CC(C)(O)C#Cc1ccc2[nH]c3c(c2c1)-c1nc(N)ncc1CCC3 [AMG28, reference compound]
TAOK2 PoC at 1 μM (TAOK2): 26 PoC | HIPK1 PoC at 1 μM (HIPK1): 67 PoC | PAK5 PoC at 1 μM (PAK5): 3 PoC | TAOK1 PoC at 1 μM (TAOK1): 2 PoC

CC(C)(O)C#Cc1ccc2[nH]c3c(c2c1)-c1nc(N)ncc1CC3 [Compound 1]
TAOK2 PoC at 1 μM (TAOK2): 28 PoC | HIPK1 PoC at 1 μM (HIPK1): 76 PoC | IC50 (TTBK1): > 1 µM | TTBK1 PoC (TTBK1; ATP at Km): 78 PoC | IC50 (TTBK1; ATP at Km, dose–response 9-pt curve): 3.14 µM | PAK5 PoC at 1 μM (PAK5): 48 PoC | TAOK1 PoC at 1 μM (TAOK1): 5 PoC

CC(C)(O)C#Cc1ccc2[nH]c3c(c2c1)-c1nc(N)ncc1CCCC3 [Compound 2]
TAOK2 PoC at 1 μM (TAOK2): 83 PoC | HIPK1 PoC at 1 μM (HIPK1): 96 PoC | TTBK1 PoC (TTBK1; ATP at Km): 92 PoC and 92/NT^[c] PoC | PAK5 PoC at 1 μM (PAK5): 87 PoC | TAOK1 PoC at 1 μM (TAOK1): 65 PoC

CC(C)(O)C#Cc1ccc2[nH]cc(-c3ccnc(N)n3)c2c1 [Compound 3]
TAOK2 PoC at 1 μM (TAOK2): 12 PoC | HIPK1 PoC at 1 μM (HIPK1): 87 PoC | TTBK1 PoC (TTBK1; ATP at Km): 43 PoC | PAK5 PoC at 1 μM (PAK5): 31 PoC | TAOK1 PoC at 1 μM (TAOK1): 7 PoC

COC(C)(C)C#Cc1ccc2[nH]c3c(c2c1)-c1nc(N)ncc1CCC3 [Compound 11]
TAOK2 PoC at 1 μM (TAOK2): 44 PoC | HIPK1 PoC at 1 μM (HIPK1): 96 PoC | TTBK1 PoC (TTBK1; ATP at Km): 117 PoC and 117/NT PoC | PAK5 PoC at 1 μM (PAK5): 88 PoC | TAOK1 PoC at 1 μM (TAOK1): 73 PoC
